Results taken from patent US5547684A, “Cosmetic composition containing a DNA-sodium salt and methods of making and using the same” (priority 1993, dated 1996).

How the values were obtained:
[1] = in vivo; settings: mouse, in vivo
Description: (§1) The studies on toxicity of AC-1 and AC-4 and of aziodothymidine were conducted on non-linear white mice weighing 6 to 7 grams, making use of different concentrations of preparations per kg of weight of the animal in the volume of 0.2 ml in hypodermic, intranasal and intraabdominal injections and 0.03 ml in intracerebral injections. The animals were kept under observation for 2 weeks and then LD50 was calculated using Curber method. The lethal dose of the preparation which has caused death of 50% of the animals was considered an LD50 dose. The preparation was used as a sterile solution was a concentration of 0.05%.
(§2) The animals were kept under observation for 2 weeks and then LD50 was calculated using Curber method. The lethal dose of the preparation which caused death of 50% of the animal was considered the LD50 dose.

[2] = test system: white mice; test: in vivo; settings: for surviving mice / infected mice: Table 3
Description: as §1, §2

[3] = test system: normal cells; settings: cited from earlier work
[4] = test system: HIV (HIV-IVS and HIV-1 HTLV/IIIB strains); test: HIV suppression in vitro (syncitia, viral antigen IFA), CEM-SS and MT-4 cells; type: cell-based; settings: Table 1; comparison preparation, no ratio
Description: Complexes of DNA-Na with zinc, cobalt, nickel and iron were used for HIV suppression in in vitro systems with various concentrations of the components in the complexes. AZT manufactured by "Wellcome" Company was used for comparison purposes. The antiviral activity of the preparation was tested according to the method recommended by WHPO for these purposes. CEM-SS and MT-4 reinoculated human cell lines were used. The cells were cultivated in the concentration of (0.03-0.05)*10^6 cells per 1 ml of RPMI 1640 medium with 10% calf fetal serum, […] of L-glutamine, 100 mcg/ml of gentamicin and grown in the form of a suspension. The vitality of cells was tested by dyeing them with 0.4% solution of threpane blue dye stuff. HIV-IVS and HIV-1 HTLV/IIIB strains were used as the virus sources.
The cell suspension was placed into 24 well panels, processed by various doses of preparations and then infected by HIV. The infection multiplicity was 0.01 TCD50 per cell. After that, the cultures were incubated at 37° C. in a 5% CO2 atmosphere and 98% humidity for 5-7 days up to the moment of defining the cytopathic effect of the virus upon the cell culture.
Immunophermentative analysis was used to define formation of viral antigen.

[5] = test system: mice; settings: 10 mg/kg injected intercerebrally; cited from earlier work
[6] = test system: MT-4 cells and Yurkat tat III cells; test: Cell viability / toxic effect on cells, AC-series preparations; type: cell-based, human
Description: (§3) The testing of anti-virus activity was conducted using two types of interwoven cellar lines sensitive to infecting by AIDS-virus--the MT-4 cells and Yurkat tat III cells. The cells were harvested in suspension form in a PPMI 1640 medium containing 15% of fetal serum with exposure to the atmosphere characterized by 5% CO2 content, 98% humidity level and 37% C. temperature level. The cells were infected by the HTLV-IIIB culture of AIDS-1 virus in accordance with WHO recommendations for conducting scientific researches on testing pharmaceutical preparations. The methods used for determining anti-virus activity of the tested preparations are recommended for similar purposes by the WHO Reference Laboratory (Belgium) headed by Professor de Clerk who is an internationally recognized leading expert in synthesis and screening chemical preparations for AIDs treatment (I. Antimicrob. Chemoter., 1989, No. 23, Suppl. A 35-46). The work was done at the Virology Institute of the U.S.S.R. Academy of Medical Sciences on MT-4 human lymphoid cells and on Yurkat tat III cells as indicated above.
(§4) The cells were incubated for 6 days under similar conditions and thereafter their viability was determined as well as formation of virus-induced syncytia and virus antigen (p24) using immunofermental analysis. […] The viable cells were counted using thripane blue dye-stuff in the Goryayev chamber.

[7] = test system: CEM-SS and MT-4 cells; test: Cytotoxicity of preparations, threpane blue vitality of cells; type: cell-based, human; settings: Table 1; comparison preparation, no ratio
Description: The antiviral activity of the preparation was tested according to the method recommended by WHPO for these purposes. CEM-SS and MT-4 reinoculated human cell lines were used. The cells were cultivated in the concentration of (0.03-0.05)*10^6 cells per 1 ml of RPMI 1640 medium with 10% calf fetal serum, 300 mg/ml of L-glutamine, 100 mcg/ml of gentamicin and grown in the form of a suspension. The vitality of cells was tested by dyeing them with 0.4% solution of threpane blue dye stuff. HIV-IVS and HIV-1 HTLV/IIIB strains were used as the virus sources.

[8] = test system: HIV-1 (HTLV-IIIB); test: Anti-virus activity of AC-series preparations on infected cells (syncitia, p24 antigen); type: cell-based
Description: Antiviral activity of these preparations toward HIV-1 was studied using as the model, cellular cultures infected with HIV-1.
as §3, with “The work was done at the Virology Institute of the U.S.S.R. Academy of Medical Sciences on MT-4 human lymphoid cells and on Yurkat tat III cells as indicated above.” left out
as §4

Cc1cn([C@H]2C[C@H](N=[N+]=[N-])[C@@H](CO)O2)c(=O)[nH]c1=O [AZT, azidothymidine]
LD50 at 336 h [1]: 10 mg/kg | mortality at 336 h ([1]; 10 mg/kg): 50% | surviving mice / infected mice ([2]; hypoderm., 5 mg/kg): 6/6 | surviving mice / infected mice ([2]; hypoderm., 10 mg/kg): 6/6 | surviving mice / infected mice ([2]; hypoderm., 20 mg/kg): 6/6 | surviving mice / infected mice ([2]; hypoderm., 35 mg/kg): 6/6 | surviving mice / infected mice ([2]; hypoderm., 50 mg/kg): 6/6 | surviving mice / infected mice ([2]; hypoderm., 75 mg/kg): 6/6 | surviving mice / infected mice ([2]; in/abdom., 5 mg/kg): 6/6 | surviving mice / infected mice ([2]; in/abdom., 10 mg/kg): 6/6 | surviving mice / infected mice ([2]; in/abdom., 20 mg/kg): 6/6 | surviving mice / infected mice ([2]; in/abdom., 35 mg/kg): 6/6 | surviving mice / infected mice ([2]; in/abdom., 50 mg/kg): 6/6 | surviving mice / infected mice ([2]; in/abdom., 75 mg/kg): 6/6 | surviving mice / infected mice ([2]; in/cerebr., 5 mg/kg): 6/6 | surviving mice / infected mice ([2]; in/cerebr., 10 mg/kg): 6/6 | surviving mice / infected mice ([2]; in/cerebr., 20 mg/kg): 6/6 | surviving mice / infected mice ([2]; in/cerebr., 35 mg/kg): 6/6 | surviving mice / infected mice ([2]; in/cerebr., 50 mg/kg): 6/6 | surviving mice / infected mice ([2]; in/cerebr., 75 mg/kg): 6/6 | surviving mice / infected mice ([2]; in/nasal, 5 mg/kg): 6/6 | surviving mice / infected mice ([2]; in/nasal, 10 mg/kg): 6/6 | surviving mice / infected mice ([2]; in/nasal, 20 mg/kg): 6/6 | surviving mice / infected mice ([2]; in/nasal, 35 mg/kg): 6/6 | surviving mice / infected mice ([2]; in/nasal, 50 mg/kg): 6/6 | surviving mice / infected mice ([2]; in/nasal, 75 mg/kg): 6/6 | toxicity ([2]; all injection methods, 5 to 50 mg/kg, except intracerebral 10 to 50 mg/kg): non-toxic | normal cells killed ([3]; optimal dose): about 30% | CC50 ([3]; read-out: LD50 for cells, cells): ≤ 100 mM | IFA optical density [4]: 0.091 | IFA viral antigen [4]: 0.1 ng/mL | quantity of syncitia, % from the control virus [4]: 8% | death of animals [5]: 50% | viability at 270 µg/mL ([6]; Homo sapiens, MT4, 144 h): 96% | toxicity on the cell level ([6]; all the above biologically active concentrations): nontoxic | cytotoxicity: quantity of cells in ml of cultural liquid [7]: 0.61 × 10^8 | antigen (p24) content ([8]; 1.0 mcm/ml, virus control 2.0 ng/ml): 1 ng/mL | immunofermental activity ([8]; Table 2, virus antigen (p24), 270 mkg/ml, 6th day): 0.1 ng/mL
